According to ChEMBL document CHEMBL1147827, “A pyrimidine-pyrazolone nucleoside chimera with potent in vitro anti-orthopoxvirus activity” (Bioorg Med Chem Lett, 2006):

Tested on: Vaccinia virus
Assay: Antiviral activity against Vaccinia virus Copenhagen in HFF cells assessed as reduction in cytopathogenicity
Assay type: functional, organism-based
Conditions: Orthopoxvirus vaccinia

CC(=O)OC[C@H]1O[C@@H](n2cc(/C=C3\C(=O)N(c4ccccc4)N=C3C)c(=O)[nH]c2=O)C[C@@H]1OC(C)=O
EC50: 32 µM
